Measured values taken from patent US10336760B2, “Inhibitors of cyclin-dependent kinase 7 (CDK7)” (SYROS PHARMACEUTICALS, INC., priority 2014, dated 2019).
Like-named read-outs stand apart in the source and are kept apart here.

Tests used:
A673 cells = assay: Inhibition of A673 cell proliferation (CyQUANT); type: cell-based; details: Homo sapiens, read-out: A673 IC50
Experimental: Representative compounds of the invention were tested at different concentrations (from 4 μM to 126.4 pM; 0.5 log serial dilutions) for their ability to inhibit the proliferation of A673 cells. Known CDK inhibitors flavopiridol and triptolide were used as positive controls. Cells were grown in Dulbecco's Modified Eagle's Medium, +10% FBS+1 mM Sodium Pyruvate. The cells were cultured at 37° C. in a humidified chamber in the presence of 5% CO2. Proliferation assays were conducted over a 72 hour time period. CyQUANT® (Life Technologies, Chicago, Ill. USA) was used to assess the anti-proliferative effects of the compounds following manufacturer's directions and utilizing the reagents supplied with the CyQUANT® kit.

CDK7 = biological target: T1, CDK7 (Homo sapiens, UniProt P50613); assay: CDK7 kinase activity, Adapta kinase assay (Life Technologies); type: biochemical; details: read-out: CDK7 Inhibition (IC50); further: concentrations from 10 µM down to 0.514 nM
T1 construct: purchased Life Technologies (Grand Island, N.Y.), Adapta kinase assay service
Experimental: Compounds of the invention were assayed for CDK7 activity at Life Technologies (Grand Island, N.Y.) using their commercially available Adapta® kinase assay services. […] Details of this assay, including substrates used, are available on the Life Technologies web site (http://www.lifetechnologies.com/us/en/home/life-science/drug-discovery/target-and-lead-identification-and-validation/kinasebiology/kinase-activity-assays.html).

[1] = A673 cells, 72 hour proliferation, CyQUANT, 4 μM to 126.4 pM, 0.5 log serial dilutions

T1 sequence (P50613 whole entry): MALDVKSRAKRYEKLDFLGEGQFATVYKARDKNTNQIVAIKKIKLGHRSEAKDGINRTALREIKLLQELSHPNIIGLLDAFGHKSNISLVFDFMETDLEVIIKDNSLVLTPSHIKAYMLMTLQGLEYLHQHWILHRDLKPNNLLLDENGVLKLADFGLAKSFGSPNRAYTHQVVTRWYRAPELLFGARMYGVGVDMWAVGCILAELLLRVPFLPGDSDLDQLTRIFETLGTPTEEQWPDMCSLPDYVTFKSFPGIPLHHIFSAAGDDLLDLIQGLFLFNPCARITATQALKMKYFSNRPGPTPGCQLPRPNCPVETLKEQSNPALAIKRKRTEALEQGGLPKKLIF
T1 sequence (P51946 whole entry partner): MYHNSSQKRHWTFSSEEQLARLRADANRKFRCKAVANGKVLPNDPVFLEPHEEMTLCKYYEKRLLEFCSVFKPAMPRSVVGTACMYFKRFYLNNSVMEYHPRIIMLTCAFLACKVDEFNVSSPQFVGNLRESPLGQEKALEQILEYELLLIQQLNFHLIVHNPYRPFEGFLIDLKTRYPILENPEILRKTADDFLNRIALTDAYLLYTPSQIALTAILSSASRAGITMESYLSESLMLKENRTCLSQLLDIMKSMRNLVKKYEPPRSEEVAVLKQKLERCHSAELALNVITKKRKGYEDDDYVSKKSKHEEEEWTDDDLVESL
T1 sequence (P51948 whole entry partner): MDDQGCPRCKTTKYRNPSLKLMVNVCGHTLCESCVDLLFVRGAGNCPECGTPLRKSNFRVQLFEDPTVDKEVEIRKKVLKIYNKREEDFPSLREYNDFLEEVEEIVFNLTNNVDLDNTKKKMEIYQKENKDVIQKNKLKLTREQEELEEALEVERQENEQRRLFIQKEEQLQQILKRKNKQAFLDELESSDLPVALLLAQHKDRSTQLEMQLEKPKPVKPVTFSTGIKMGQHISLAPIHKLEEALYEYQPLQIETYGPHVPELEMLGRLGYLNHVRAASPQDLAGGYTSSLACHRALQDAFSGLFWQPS

For `CC(C)c1cnn2c(NC3CCN(C(=O)c4ccc(NC(=O)/C=C/CN(C)C)cc4)CC3)nc(OC3CCN(C)CC3)nc12` [Compound 102, (E)-4-(Dimethylamino)-N-(4-(4-((8-isopropyl-2-((1-methylpiperidin-4-yl)oxy)pyrazolo[1,5-a][1,3,5]triazin-4-yl)amino)piperidine-1-carbonyl)phenyl)but-2-enamide], the IC50 (A673 cells; [1]) was 500 to 5000 nM and the IC50 (CDK7) was greater than 1000 nM.
`CC(C)c1cnn2c(NCc3ccccc3NC(=O)c3ccc(NC(=O)/C=C/CN(C)C)cc3)nc(OC3CCN(C)CC3)nc12` [Compound 103, (E)-4-(4-(dimethylamino)but-2-enamido)-N-(2-(((8-isopropyl-2-((1-methylpiperidin-4-yl)oxy)pyrazolo[1,5-a][1,3,5]triazin-4-yl)amino)methyl)phenyl)benzamide] showed an IC50 (A673 cells; [1]) of 500 to 5000 nM and an IC50 (CDK7) of 100 to 1000 nM.
`CC(C)c1cnn2c(NCc3ccccc3NCc3ccc(NC(=O)/C=C/CN(C)C)cc3)nc(OC3CCN(C)CC3)nc12` [Compound 104, (E)-4-(dimethylamino)-N-(4-(((2-(((8-isopropyl-2-((1-methylpiperidin-4-yl)oxy)pyrazolo[1,5-a][1,3,5]triazin-4-yl)amino)methyl)phenyl)amino)methyl)phenyl)but-2-enamide] was tested, and the IC50 (A673 cells; [1]) was less than 500 nM and the IC50 (CDK7) was less than 100 nM.
`CC(C)c1cnn2c(NCc3ccccc3N3CCN(C(=O)/C=C/CN(C)C)CC3)nc(OC3CCN(C)CC3)nc12` [Compound 105, (E)-4-(Dimethylamino)-1-(4-(2-(((8-isopropyl-2-((1-methylpiperidin-4-yl)oxy)pyrazolo[1,5-a][1,3,5]triazin-4-yl)amino)methyl)phenyl)piperazin-1-yl)but-2-en-1-one] was tested, and the IC50 (A673 cells; [1]) was less than 500 nM and the IC50 (CDK7) was less than 100 nM.
With `C=CC(=O)Nc1cccc(C(=O)N2CCC(C(=O)Nc3ncc(SCc4ncc(C(C)(C)C)o4)s3)CC2)c1` [Compound 117, 1-(3-Acrylamidobenzoyl)-N-(5-(((5-(tert-butyl)oxazol-2-yl)methyl)thio)thiazol-2-yl)piperidine-4-carboxamide] the IC50 (A673 cells; [1]) was less than 500 nM.
Work on `C=CC(=O)Nc1cccc(CN2CCC(C(=O)Nc3ncc(SCc4ncc(C(C)(C)C)o4)s3)CC2)c1` [Compound 118, 1-(3-Acrylamidobenzyl)-N-(5-(((5-(tert-butyl)oxazol-2-yl)methyl)thio)thiazol-2-yl)piperidine-4-carboxamide] yielded an IC50 (A673 cells; A673, 72 h) of less than 500 nM and an IC50 (CDK7) of 100 to 1000 nM.
With `C=CC(=O)Nc1ccc(CN2CCC(C(=O)Nc3ncc(SCc4ncc(C(C)(C)C)o4)s3)CC2)cc1` [Compound 119, 1-(4-Acrylamidobenzyl)-N-(5-(((5-(tert-butyl)oxazol-2-yl)methyl)thio)thiazol-2-yl)piperidine-4-carboxamide] the IC50 (A673 cells; A673, 72 h) was less than 500 nM and the IC50 (CDK7) was 100 to 1000 nM.
For `C=CC(=O)N1CCC(CN2CCC(C(=O)Nc3ncc(SCc4ncc(C(C)(C)C)o4)s3)CC2)CC1` [Compound 120, 1-((1-Acryloylpiperidin-4-yl)methyl)-N-(5-(((5-(tert-butyl)oxazol-2-yl)methyl)thio)thiazol-2-yl)piperidine-4-carboxamide], the IC50 (A673 cells; A673, 72 h) was less than 500 nM and the IC50 (CDK7) was greater than 1000 nM.
`C=CC(=O)Nc1cccc(C(C)N2CCC(C(=O)Nc3ncc(SCc4ncc(C(C)(C)C)o4)s3)CC2)c1` (centres unmarked) [Compound 121, 1-(1-(3-Acrylamidophenyl)ethyl)-N-(5-(((5-(tert-butyl)oxazol-2-yl)methyl)thio)thiazol-2-yl)piperidine-4-carboxamide] was tested, and the IC50 (A673 cells; A673, 72 h) was less than 500 nM and the IC50 (CDK7) was 100 to 1000 nM.
Compound `C=CC(=O)Nc1ccc(C(=O)N2CCC(C(=O)Nc3ncc(SCc4ncc(C(C)(C)C)o4)s3)CC2)cc1` [Compound 122, 1-(4-Acrylamidobenzoyl)-N-(5-(((5-(tert-butyl)oxazol-2-yl)methyl)thio)thiazol-2-yl)piperidine-4-carboxamide] has an IC50 (A673 cells; [1]) of less than 500 nM.
With `C=CC(=O)N1CCC(C(=O)N2CCC(C(=O)Nc3ncc(SCc4ncc(C(C)(C)C)o4)s3)CC2)CC1` [Compound 123, 1-(1-Acryloylpiperidine-4-carbonyl)-N-(5-(((5-(tert-butyl)oxazol-2-yl)methyl)thio)thiazol-2-yl)piperidine-4-carboxamide] the IC50 (A673 cells; [1]) was less than 500 nM.
`C=CC(=O)N1CCCC(CN2CCC(C(=O)Nc3ncc(SCc4ncc(C(C)(C)C)o4)s3)CC2)C1` (centres unmarked) [Compound 125, 1-((1-Acryloylpiperidin-3-yl)methyl)-N-(5-(((5-(tert-butyl)oxazol-2-yl)methyl)thio)thiazol-2-yl)piperidine-4-carboxamide] was tested, and the IC50 (A673 cells; A673, 72 h) was less than 500 nM and the IC50 (CDK7) was 100 to 1000 nM.
Work on `CN(C)C/C=C/C(=O)Nc1cccc(CN2CCC(C(=O)Nc3ncc(SCc4ncc(C(C)(C)C)o4)s3)CC2)c1` [Compound 127, (E)-N-(5-(((5-(tert-butyl)oxazol-2-yl)methyl)thio)thiazol-2-yl)-1-(3-(4-(dimethylamino)but-2-enamido)benzyl)piperidine-4-carboxamide] yielded an IC50 (A673 cells; [1]) of less than 500 nM and an IC50 (CDK7) of 100 to 1000 nM.
